From ChEMBL document CHEMBL6074706, “Inhibition of the Binding of Interleukin 17A with Interleukin 17A Receptor as a Treatment for Immune System and Inflammation Disorders, Cancer, and Neurodegenerative Diseases” (ACS Med Chem Lett, 2024)
pIC50: −log10 of the molar value.

Assay: Inhibition of human IL-17A binding to recombinant human Fc-tagged IL-17RA preincubated with IL-17A for 30 mins followed by receptor addition and measured after 90 mins by AlphaLISA plate reader analysis

pIC50	SMILES
7.74	CCC[C@H](c1ccnc(NC(=O)[C@@H](NC(=O)c2nocc2CC)C2CCC(F)(F)CC2)c1)N1C[C@@H](C(F)(F)F)NC1=O
5.92	CC(C)n1nccc1C(=O)N[C@H](C(=O)Nc1cc(O[C@@H]2C[C@@H](C(F)(F)F)NC2=O)ccn1)[C@H]1CC[C@H](C)CC1
7.96	COCC(c1ccnc(NC(=O)[C@@H](NC(=O)c2nonc2C2CC2)[C@H]2CC[C@H](C)CC2)c1)N1C[C@@H](C(F)(F)F)NC1=O (some centres undefined)
6.98	CC1(C)CN(Cc2ccnc(NC(=O)[C@@H](NC(=O)c3nonc3C3CC3)[C@H]3CC[C@H](C)CC3)c2)C(=O)N1
7.60	C[C@H]1CC[C@H]([C@H](NC(=O)c2nonc2C2CC2)C(=O)Nc2cc(CN3C[C@@H](C(F)(F)F)NC3=O)ccn2)CC1
6.83	CC(C)(C)OC(=O)N[C@H](C(=O)Nc1cc(CN2C[C@@H](C(F)(F)F)NC2=O)ccn1)[C@H]1CC[C@H](C)CC1
7.29	CCc1nocc1C(=O)N[C@H](C(=O)Nc1cc([C@@H](COC)N2C[C@@H](C(F)(F)F)NC2=O)ccn1)[C@H]1CCCC(F)(F)C1
7.77	CCc1nonc1C(=O)NC(C(=O)Nc1cc([C@@H](COC)N2C[C@@H](C(F)(F)F)NC2=O)ccn1)C1CCC(F)CC1 (some centres undefined)
8.22	CC[C@H](c1ccnc(NC(=O)[C@H](NC(=O)c2ccnn2C)[C@H]2CC[C@H](C)CC2)c1)N1C[C@@H](C(F)(F)F)NC1=O
8.40	CCc1nonc1C(=O)N[C@H](C(=O)Nc1cc(C(COC)N2C[C@@H](C(F)(F)F)NC2=O)ccn1)[C@H]1CC[C@H](C)CC1 (some centres undefined)
7.72	CCc1nonc1C(=O)N[C@H](C(=O)Nc1cc([C@@H](COC)N2CC(F)(F)CNC2=O)ccn1)C1CCC(F)(F)CC1
6.33	CCc1ncoc1C(=O)N[C@H](C(=O)Nc1cc(C[C@H]2C[C@@H](C(F)(F)F)NC2=O)ccn1)C1CCC(F)(F)CC1
5.87	COCC(NC(=O)CCC(F)(F)F)c1ccnc(NC(=O)[C@@H](NC(=O)c2ccnn2C(C)C)C2CCC(F)(F)CC2)c1 (some centres undefined)
5.05	Cn1nccc1C(=O)N[C@H](C(=O)Nc1cc(OC2CCNC2=O)ccn1)[C@H]1CC[C@H](C)CC1 (some centres undefined)
